Results as given in ChEMBL document CHEMBL3885861, “Open TG-GATES”.
“And” between values parts separate entries of the source, which are not always exact repeats. Identical values can stand only once.

Species: Rattus norvegicus
Experiment: Open TG-GATES - Regimen: Single
Format: toxicity, organism-based, Sprague-Dawley
Design: regimen Single, gender Male, age 6 weeks
Details: in vivo, po, 0 mg/kg, route gavage, dose level Control; for APTT / Bas / Eos / Fbg / Hb / Ht / Lym / MCH / MCHC / MCV / Mono / Neu / PT / Plat / RBC / Ret / WBC: tissue Blood; for KIDNEY_L / KIDNEY_R / KIDNEY_TOTAL: tissue Kidney; for LIVER: tissue Liver; for A/G / ALP / ALT / AST / BUN / CRE / Ca / Cl / GLC / IP / K / LDH / Na / PL / RALB / TBIL / TC / TG / TP / gamma-GTP / DBIL: tissue Plasma

Compound: COc1ccc2c(c1)c(CC(=O)O)c(C)n2C(=O)c1ccc(Cl)cc1 [INDOMETHACIN]
- TERMINAL_BW (3 h): 201 g and 226.5 g
- APTT (3 h): 16.8 s and 19.8 s
- Bas (3 h): 0% and 0.2%
- Eos (3 h): 0.6% and 1%
- Fbg (3 h): 201.6 mg/dL and 227.8 mg/dL
- Hb (3 h): 13.6 g/dL and 13.9 g/dL
- Ht (3 h): 40.8% and 38.7%
- Lym (3 h): 80% and 80.4%
- MCH (3 h): 21.9 pg and 22.5 pg
- MCHC (3 h): 33.2% and 35.9%
- MCV (3 h): 66 fL and 62.6 fL
- Mono (3 h): 10.2% and 2.4%
- Neu (3 h): 9.6% and 15%
- PT (3 h): 12.8 s and 11.9 s
- Plat (3 h): 109 x10_4/uL and 118.1 x10_4/uL
- RBC (3 h): 618.8 x10_4/ul
- Ret (3 h): 10.2% and 7.9%
- WBC (3 h): 108.5 x10_2/uL and 100.3 x10_2/uL
- KIDNEY_L (3 h): 0.9 g and 1 g
- KIDNEY_R (3 h): 0.9 g and 1 g
- KIDNEY_TOTAL (3 h): 1.8 g and 2 g
- LIVER (3 h): 9.4 g and 10 g
- A/G (3 h): 1.6 and 1.8
- ALP (3 h): 1191.4 IU/L and 1059 IU/L
- ALT (3 h): 39 IU/L and 32.2 IU/L
- AST (3 h): 69.6 IU/L and 71.8 IU/L
- BUN (3 h): 12.2 mg/dL and 11.8 mg/dL
- CRE (3 h): 0.5 mg/dL and 0.4 mg/dL
- Ca (3 h): 10.6 mg/dL and 10.7 mg/dL
- Cl (3 h): 105.6 meq/L and 103 meq/L
- GLC (3 h): 194.4 mg/dL and 209.4 mg/dL
- IP (3 h): 10 mg/dL and 9.2 mg/dL
- K (3 h): 5.1 meq/L and 4.1 meq/L
- LDH (3 h): 104.8 IU/L and 217.4 IU/L
- Na (3 h): 137.8 meq/L and 141 meq/L
- PL (3 h): 129.4 mg/dL and 135 mg/dL
- RALB (3 h): 3.8 g/dL and 3.4 g/dL
- TBIL (3 h): 0.3 mg/dL and 0.1 mg/dL
- TC (3 h): 74.8 mg/dL and 73.8 mg/dL
- TG (3 h): 56.2 mg/dL and 67.4 mg/dL
- TP (3 h): 6.1 g/dL and 5.4 g/dL
- gamma-GTP (3 h): 1.2 IU/L
- TERMINAL_BW (6 h): 197.2 g and 224 g
- APTT (6 h): 17.5 s and 19.1 s
- Bas (6 h): 0%
- Eos (6 h): 0.8%
- Fbg (6 h): 209.2 mg/dL and 225.2 mg/dL
- Hb (6 h): 13.6 g/dL and 13.8 g/dL
- Ht (6 h): 41% and 38.1%
- Lym (6 h): 78.2% and 80%
- MCH (6 h): 21.9 pg and 22.3 pg
- MCHC (6 h): 33.1% and 36.4%
- MCV (6 h): 66.2 fL and 61.3 fL
- Mono (6 h): 6.8% and 2.8%
- Neu (6 h): 14.2% and 15%
- PT (6 h): 12.7 s and 12.2 s
- Plat (6 h): 104.7 x10_4/uL and 120.1 x10_4/uL
- RBC (6 h): 619.4 x10_4/ul and 621.8 x10_4/ul
- Ret (6 h): 9.3% and 7.9%
- WBC (6 h): 111.4 x10_2/uL and 85.5 x10_2/uL
- KIDNEY_L (6 h): 0.9 g
- KIDNEY_R (6 h): 0.9 g
- KIDNEY_TOTAL (6 h): 1.8 g and 1.9 g
- LIVER (6 h): 8.4 g and 9.5 g
- A/G (6 h): 1.7 and 1.6
- ALP (6 h): 1101.4 IU/L and 861.4 IU/L
- ALT (6 h): 34.2 IU/L and 31.6 IU/L
- AST (6 h): 68.4 IU/L and 67.8 IU/L
- BUN (6 h): 11.6 mg/dL and 9.6 mg/dL
- CRE (6 h): 0.5 mg/dL and 0.4 mg/dL
- Ca (6 h): 10.1 mg/dL and 10.8 mg/dL
- Cl (6 h): 106 meq/L and 102.8 meq/L
- DBIL (6 h): 0.032 mg/dL and 0.078 mg/dL
- GLC (6 h): 193.2 mg/dL and 193.8 mg/dL
- IP (6 h): 9.8 mg/dL and 9.4 mg/dL
- K (6 h): 4.8 meq/L and 4.1 meq/L
- LDH (6 h): 77.2 IU/L and 197.4 IU/L
- Na (6 h): 137.2 meq/L and 140.6 meq/L
- PL (6 h): 119.2 mg/dL and 136.4 mg/dL
- RALB (6 h): 3.8 g/dL and 3.4 g/dL
- TBIL (6 h): 0.3 mg/dL and 0.1 mg/dL
- TC (6 h): 69.2 mg/dL and 73.4 mg/dL
- TG (6 h): 39 mg/dL and 70.6 mg/dL
- TP (6 h): 6 g/dL and 5.5 g/dL
- gamma-GTP (6 h): 1.8 IU/L and 1 IU/L
- TERMINAL_BW (9 h): 196.5 g and 222.5 g
- APTT (9 h): 16.7 s and 17.7 s
- Bas (9 h): 0%
- Eos (9 h): 0.4% and 1%
- Fbg (9 h): 211.2 mg/dL and 229.6 mg/dL
- Hb (9 h): 13.2 g/dL and 13.5 g/dL
- Ht (9 h): 40% and 36.8%
- Lym (9 h): 82.8% and 78.6%
- MCH (9 h): 21.7 pg and 22.4 pg
- MCHC (9 h): 33.1% and 36.7%
- MCV (9 h): 65.6 fL and 61.1 fL
- Mono (9 h): 6.4% and 2.8%
- Neu (9 h): 10.2% and 16.6%
- PT (9 h): 12.5 s
- Plat (9 h): 100.8 x10_4/uL and 126.3 x10_4/uL
- RBC (9 h): 610 x10_4/ul and 603.4 x10_4/ul
- Ret (9 h): 10.2% and 8.2%
- WBC (9 h): 121.1 x10_2/uL and 84 x10_2/uL
- KIDNEY_L (9 h): 0.9 g and 1 g
- KIDNEY_R (9 h): 0.9 g and 1 g
- KIDNEY_TOTAL (9 h): 1.9 g
- LIVER (9 h): 8.1 g and 8.7 g
- A/G (9 h): 2.5 and 1.7
- ALP (9 h): 901.4 IU/L and 851.8 IU/L
- ALT (9 h): 33.8 IU/L and 28.6 IU/L
- AST (9 h): 68.8 IU/L and 64.8 IU/L
- BUN (9 h): 12.4 mg/dL and 9.6 mg/dL
- CRE (9 h): 0.5 mg/dL and 0.4 mg/dL
- Ca (9 h): 10.2 mg/dL and 10.5 mg/dL
- Cl (9 h): 107 meq/L and 104.2 meq/L
- DBIL (9 h): 0.042 mg/dL and 0.072 mg/dL
- GLC (9 h): 191 mg/dL and 209 mg/dL
- IP (9 h): 10.3 mg/dL
- K (9 h): 5.1 meq/L and 3.8 meq/L
- LDH (9 h): 98.8 IU/L and 189 IU/L
- Na (9 h): 138 meq/L and 142.4 meq/L
- PL (9 h): 137.6 mg/dL and 129.2 mg/dL
- RALB (9 h): 3.9 g/dL and 3.5 g/dL
- TC (9 h): 81 mg/dL and 72.4 mg/dL
- TG (9 h): 43.4 mg/dL and 45.8 mg/dL
- TP (9 h): 5.4 g/dL and 5.6 g/dL
- gamma-GTP (9 h): 2 IU/L and 1 IU/L
- TERMINAL_BW (24 h): 215.4 g and 240.9 g
- APTT (24 h): 16.7 s and 18.2 s
- Bas (24 h): 0% and 0.8%
- Eos (24 h): 1% and 0.6%
- Fbg (24 h): 218.4 mg/dL and 222.8 mg/dL
- Hb (24 h): 13.5 g/dL and 13.2 g/dL
- Ht (24 h): 41.1% and 38.2%
- Lym (24 h): 79% and 79.8%
- MCH (24 h): 21.6 pg and 21.5 pg
- MCHC (24 h): 33% and 34.4%
- MCV (24 h): 65.5 fL and 62.4 fL
- Mono (24 h): 10.4% and 2.6%
- Neu (24 h): 9.4% and 15.6%
- PT (24 h): 12.1 s and 11.5 s
- Plat (24 h): 95.4 x10_4/uL and 128.4 x10_4/uL
- RBC (24 h): 627.4 x10_4/ul and 612.4 x10_4/ul
- Ret (24 h): 9.1% and 6.5%
- WBC (24 h): 106.5 x10_2/uL and 112.4 x10_2/uL
- KIDNEY_L (24 h): 1 g
- KIDNEY_R (24 h): 1 g
- KIDNEY_TOTAL (24 h): 2 g
